Data reported in publication PMC9721423, “Novel benzo chromene derivatives: design, synthesis, molecular docking, cell cycle arrest, and apoptosis induction in human acute myeloid leukemia HL-60 cells” (Journal of Enzyme Inhibition and Medicinal Chemistry, 2022).
Read-outs that look alike come from different tables or passages of the source.

How the values were obtained:
SK-MEL-5 = assay: cells; parameters: species or system NCI-60 human tumour cell lines; NCI-60 five-dose growth inhibition screen, sulforhodamine B protein stain; settings: Homo sapiens, SK-MEL-5, 48 h
Description: (§1) All the newly synthesised 28 compounds were selected for single-dose testing. NCI60 single-dose testing is performed in all 60 cell lines according to the reported assay (National Cancer Institute, https://dtp.cancer.gov/) (National Cancer Institute https://dtp.cancer.gov/discovery_development/nci-60/), compounds were dissolved in DMSO: glycerol […] and are stored in a −70 °C freezer. The prepared compounds were added at single concentration of 1 0^−5 M and the culture was incubated for 48 h. End point determinations were made with a protein binding dye, sulforhodamine B (SRB). The human tumour cell lines were derived from nine different cancer types: leukaemia, melanoma, lung, colon, central nervous system (CNS), ovarian, renal, prostate, and breast cancers. Dose–response curves for these compounds were created by plotting the percentage growth (PGs or % growth) against log10 of the corresponding concentration for every cell line. Three response parameters, GI50 (Median Growth Inhibitory Concentration), TGI (Total Growth Inhibitory Concentration), and LC50 (Median Lethal Concentration) were calculated[54] (National Cancer Institute, https://dtp.cancer.gov/discovery_development/nci-60/) (National Cancer Institute, https://dtp.cancer.gov/)[55] for compounds 5a and 6a. […] Furthermore, the average sensitivity of all cell lines towards the compound is termed as the full panel mean graph midpoints (MG-MID). The ratio obtained by dividing the full panel mean graph midpoints (MG-MID) concentration by the individual subpanel MG-MID concentrations (obtained as the average sensitivity of all cell lines of a particular subpanel towards the test compound) is considered a criterion for the compound selectivity towards the corresponding cell line. Ratios greater than 6 indicate high selectivity while ratios between 3 and 6 refer to moderate selectivity whereas compounds not meeting either of these criteria were rated non-selective[56].

NCI/ADR-RES = assay: cells; parameters: species or system NCI-60 human tumour cell lines; NCI-60 five-dose growth inhibition screen, sulforhodamine B protein stain; settings: Homo sapiens, NCI/ADR-RES, 48 h
Description: as §1

U251 = assay: cells; parameters: species or system NCI-60 human tumour cell lines; NCI-60 five-dose growth inhibition screen, sulforhodamine B protein stain; settings: Homo sapiens, U-251, 48 h
Description: as §1

SW-620 = assay: cells; parameters: species or system NCI-60 human tumour cell lines; NCI-60 five-dose growth inhibition screen, sulforhodamine B protein stain; settings: Homo sapiens, SW-620, 48 h
Description: as §1

CCRF-CEM = assay: cells; parameters: species or system NCI-60 human tumour cell lines; NCI-60 five-dose growth inhibition screen, sulforhodamine B protein stain; settings: Homo sapiens, CCRF-CEM, 48 h
Description: as §1

SF-295 = assay: cells; parameters: species or system NCI-60 human tumour cell lines; NCI-60 five-dose growth inhibition screen, sulforhodamine B protein stain; settings: Homo sapiens, SF-295, 48 h
Description: as §1

M14 = assay: cells; parameters: species or system NCI-60 human tumour cell lines; NCI-60 five-dose growth inhibition screen, sulforhodamine B protein stain; settings: Homo sapiens, M14, 48 h
Description: as §1

OVCAR-8 = assay: cells; parameters: species or system NCI-60 human tumour cell lines; NCI-60 five-dose growth inhibition screen, sulforhodamine B protein stain; settings: Homo sapiens, OVCAR-8, 48 h
Description: as §1

A498 = assay: cells; parameters: species or system NCI-60 human tumour cell lines; NCI-60 five-dose growth inhibition screen, sulforhodamine B protein stain; settings: Homo sapiens, A498, 48 h
Description: as §1

HL-60(TB) = assay: cells; parameters: species or system NCI-60 human tumour cell lines; NCI-60 five-dose growth inhibition screen, sulforhodamine B protein stain; settings: Homo sapiens, HL-60, 48 h
Description: as §1

DU-145 = assay: cells; parameters: species or system NCI-60 human tumour cell lines; NCI-60 five-dose growth inhibition screen, sulforhodamine B protein stain; settings: Homo sapiens, DU-145, 48 h
Description: as §1

SNB-19 = assay: cells; parameters: species or system NCI-60 human tumour cell lines; NCI-60 five-dose growth inhibition screen, sulforhodamine B protein stain; settings: Homo sapiens, SNB-19, 48 h
Description: as §1

NCI-H226 = assay: cells; parameters: species or system NCI-60 human tumour cell lines; NCI-60 five-dose growth inhibition screen, sulforhodamine B protein stain; settings: Homo sapiens, NCI-H226, 48 h
Description: as §1

OVCAR-3 = assay: cells; parameters: species or system NCI-60 human tumour cell lines; NCI-60 five-dose growth inhibition screen, sulforhodamine B protein stain; settings: Homo sapiens, OVCAR-3, 48 h
Description: as §1

LOX IMVI = assay: cells; parameters: species or system NCI-60 human tumour cell lines; NCI-60 five-dose growth inhibition screen, sulforhodamine B protein stain; settings: Homo sapiens, LOX IMVI, 48 h
Description: as §1

MDA-MB-468 = assay: cells; parameters: species or system NCI-60 human tumour cell lines; NCI-60 five-dose growth inhibition screen, sulforhodamine B protein stain; settings: Homo sapiens, MDA-MB-468, 48 h
Description: as §1

CDK-2 = molecular target: T1, CDK-2 (Homo sapiens, UniProt P24941); assay: Kinase-Glo MAX luminescence kinase assay, CDK-2/cyclin A2 kit; assay type: biochemical; settings: read-out: CDK-2/ cyclin A2 IC50 (μM) ± SD
T1 construct: gene CDK2; with cyclin A2

N=C(NO)C1=C(N)Oc2c(ccc3ccccc23)C1c1ccccc1 (stereo not shown) [5a, 2-Amino-4-phenyl-N-hydroxy-4H-benzo[h]chromene-3-carboxamidine]
GI50 (SK-MEL-5): 320 nM | GI50 (NCI/ADR-RES; read-out: GI50 5a): 60 nM | GI50 (U251; read-out: GI50 5a): 380 nM | GI50 (SW-620; read-out: GI50 5a): 170 nM | GI50 (CCRF-CEM; read-out: GI50 5a): 380 nM | GI50 (SF-295; read-out: GI50 5a): 300 nM | GI50 (M14; read-out: GI50 5a): 130 nM | GI50 (OVCAR-8; read-out: GI50 5a): 400 nM | GI50 (A498; read-out: GI50 5a): 110 nM | GI50 (HL-60(TB); read-out: GI50 5a): 240 nM | GI50 (DU-145; read-out: GI50 5a): 460 nM | GI50 (SNB-19; read-out: GI50 5a): 490 nM | GI50 (NCI-H226; read-out: GI50 5a): 8010 nM | GI50 (OVCAR-3; read-out: GI50 5a): 180 nM | GI50 (LOX IMVI; read-out: GI50 5a): 540 nM | GI50 (MDA-MB-468; read-out: GI50 5a): 1990 nM | IC50 (CDK-2): 0.171 µM

CC(=O)NC1=C(C#N)C(c2ccccc2)c2ccc3ccccc3c2O1 (stereo not shown) [6a, N-(3-Cyano-4-phenyl-4H-benzo[h]chromen-2-yl)acetamide]
GI50 (SK-MEL-5; read-out: GI50 6a): 360 nM | GI50 (NCI/ADR-RES; read-out: GI50 6a): 300 nM | GI50 (U251; read-out: GI50 6a): 490 nM | GI50 (SW-620; read-out: GI50 6a): 410 nM | GI50 (CCRF-CEM; read-out: GI50 6a): 390 nM | GI50 (SF-295; read-out: GI50 6a): 330 nM | GI50 (M14; read-out: GI50 6a): 560 nM | GI50 (OVCAR-8; read-out: GI50 6a): 630 nM | GI50 (A498; read-out: GI50 6a): 200 nM | GI50 (HL-60(TB); read-out: GI50 6a): 290 nM | GI50 (DU-145; read-out: GI50 6a): 730 nM | GI50 (SNB-19; read-out: GI50 6a): 780 nM | GI50 (NCI-H226; read-out: GI50 6a): 1850 nM | GI50 (OVCAR-3; read-out: GI50 6a): 340 nM | GI50 (LOX IMVI; read-out: GI50 6a): 600 nM | GI50 (MDA-MB-468; read-out: GI50 6a): 240 nM | IC50 (CDK-2): 0.301 µM
